One assay has as its system PBMC. As to conditions: 12.5 µM.

`CC[C@H](C)[C@H](NC(=O)[C@H](CCCCN)NC(=O)[C@H](CCCCN)NC(=O)[C@H](C)NC(=O)[C@H](CC(C)C)NC(=O)[C@H](C)NC(=O)[C@H](C)NC(=O)[C@H](CC(C)C)NC(=O)[C@H](C)NC(=O)[C@H](CCCCN)NC(=O)[C@H](CC(C)C)NC(=O)[C@H](CC(N)=O)NC(=O)[C@@H](N)[C@@H](C)O)C(=O)N[C@@H](CC(C)C)C(N)=O` [T1]: the “Average (percentage cell inhibition), Dmastoparan MDA-MB231 12.5uM” value with MDA-MB-231 cells came to 37.2219%. Besides, the “Average (percentage cell inhibition), Mastoparan PBMC” value in the assay on PBMC turned out to be 14.7113%.

Regarding `CC[C@H](C)[C@H](N)C(=O)N[C@H](C(=O)N[C@@H](CC(C)C)C(=O)N[C@@H](CCCCN)C(=O)N[C@@H](C)C(=O)N[C@@H](CC(C)C)C(=O)N[C@@H](C)C(=O)N[C@@H](C)C(=O)N[C@@H](CC(C)C)C(=O)N[C@@H](C)C(=O)N[C@@H](CCCCN)C(=O)N[C@@H](CCCCN)C(=O)N[C@H](C(=O)N[C@@H](CC(C)C)C(N)=O)[C@@H](C)CC)[C@@H](C)O` [T2], the “Average (percentage cell inhibition), Dmastoparan MDA-MB231 12.5uM” value in the assay on MDA-MB-231 cells came to 59.8803%. The “Average (percentage cell inhibition), Mastoparan PBMC” value in the assay with PBMC is recorded as 20.7916%.

As for `CC[C@H](C)[C@H](N)C(=O)N[C@@H](CC(N)=O)C(=O)N[C@H](C(=O)N[C@@H](CCCCN)C(=O)N[C@@H](C)C(=O)N[C@@H](CC(C)C)C(=O)N[C@@H](C)C(=O)N[C@@H](C)C(=O)N[C@@H](CC(C)C)C(=O)N[C@@H](C)C(=O)N[C@@H](CCCCN)C(=O)N[C@@H](CCCCN)C(=O)N[C@H](C(=O)N[C@@H](CC(C)C)C(N)=O)[C@@H](C)CC)[C@@H](C)O` [T3], the “Average (percentage cell inhibition), Dmastoparan MDA-MB231 12.5uM” value in the assay with MDA-MB-231 cells worked out at 21.7833%. Also, in the assay on PBMC, the “Average (percentage cell inhibition), Mastoparan PBMC” value is recorded as 8.955%.

Take `CC[C@H](C)[C@H](N)C(=O)N[C@@H](CC(N)=O)C(=O)N[C@@H](CC(C)C)C(=O)N[C@H](C(=O)N[C@@H](C)C(=O)N[C@@H](CC(C)C)C(=O)N[C@@H](C)C(=O)N[C@@H](C)C(=O)N[C@@H](CC(C)C)C(=O)N[C@@H](C)C(=O)N[C@@H](CCCCN)C(=O)N[C@@H](CCCCN)C(=O)N[C@H](C(=O)N[C@@H](CC(C)C)C(N)=O)[C@@H](C)CC)[C@@H](C)O` [T4]: in the assay with MDA-MB-231 cells, the “Average (percentage cell inhibition), Dmastoparan MDA-MB231 12.5uM” value is reported as 29.8701%. Further, the “Average (percentage cell inhibition), Mastoparan PBMC” value in the assay on PBMC was 12.9948%.

For the compound `CC[C@H](C)[C@H](N)C(=O)N[C@@H](CC(N)=O)C(=O)N[C@@H](CC(C)C)C(=O)N[C@@H](CCCCN)C(=O)N[C@H](C(=O)N[C@@H](CC(C)C)C(=O)N[C@@H](C)C(=O)N[C@@H](C)C(=O)N[C@@H](CC(C)C)C(=O)N[C@@H](C)C(=O)N[C@@H](CCCCN)C(=O)N[C@@H](CCCCN)C(=O)N[C@H](C(=O)N[C@@H](CC(C)C)C(N)=O)[C@@H](C)CC)[C@@H](C)O` [T5], in the assay with MDA-MB-231 cells, the “Average (percentage cell inhibition), Dmastoparan MDA-MB231 12.5uM” value was 39.042%. For the same compound, the “Average (percentage cell inhibition), Mastoparan PBMC” value with PBMC worked out at 12.9165%.

For `CC[C@H](C)[C@H](N)C(=O)N[C@@H](CC(N)=O)C(=O)N[C@@H](CC(C)C)C(=O)N[C@@H](CCCCN)C(=O)N[C@@H](C)C(=O)N[C@H](C(=O)N[C@@H](C)C(=O)N[C@@H](C)C(=O)N[C@@H](CC(C)C)C(=O)N[C@@H](C)C(=O)N[C@@H](CCCCN)C(=O)N[C@@H](CCCCN)C(=O)N[C@H](C(=O)N[C@@H](CC(C)C)C(N)=O)[C@@H](C)CC)[C@@H](C)O` [T6], the “Average (percentage cell inhibition), Dmastoparan MDA-MB231 12.5uM” value in the assay with MDA-MB-231 cells is recorded as 9.306%. In the assay with PBMC, the “Average (percentage cell inhibition), Mastoparan PBMC” value was found to be 0.8912%.

In the case of `CC[C@H](C)[C@H](N)C(=O)N[C@@H](CC(N)=O)C(=O)N[C@@H](CC(C)C)C(=O)N[C@@H](CCCCN)C(=O)N[C@@H](C)C(=O)N[C@@H](CC(C)C)C(=O)N[C@H](C(=O)N[C@@H](C)C(=O)N[C@@H](CC(C)C)C(=O)N[C@@H](C)C(=O)N[C@@H](CCCCN)C(=O)N[C@@H](CCCCN)C(=O)N[C@H](C(=O)N[C@@H](CC(C)C)C(N)=O)[C@@H](C)CC)[C@@H](C)O` [T7], in the assay on MDA-MB-231 cells, the “Average (percentage cell inhibition), Dmastoparan MDA-MB231 12.5uM” value is 29.9324%. In addition, the “Average (percentage cell inhibition), Mastoparan PBMC” value with PBMC came to 3.741%.

For the compound `CC[C@H](C)[C@H](N)C(=O)N[C@@H](CC(N)=O)C(=O)N[C@@H](CC(C)C)C(=O)N[C@@H](CCCCN)C(=O)N[C@@H](C)C(=O)N[C@@H](CC(C)C)C(=O)N[C@@H](C)C(=O)N[C@H](C(=O)N[C@@H](CC(C)C)C(=O)N[C@@H](C)C(=O)N[C@@H](CCCCN)C(=O)N[C@@H](CCCCN)C(=O)N[C@H](C(=O)N[C@@H](CC(C)C)C(N)=O)[C@@H](C)CC)[C@@H](C)O` [T8], in the assay with MDA-MB-231 cells, the “Average (percentage cell inhibition), Dmastoparan MDA-MB231 12.5uM” value is 35.9719%. Besides, the “Average (percentage cell inhibition), Mastoparan PBMC” value in the assay with PBMC is recorded as 11.6569%.

As for `CC[C@H](C)[C@H](N)C(=O)N[C@@H](CC(N)=O)C(=O)N[C@@H](CC(C)C)C(=O)N[C@@H](CCCCN)C(=O)N[C@@H](C)C(=O)N[C@@H](CC(C)C)C(=O)N[C@@H](C)C(=O)N[C@@H](C)C(=O)N[C@H](C(=O)N[C@@H](C)C(=O)N[C@@H](CCCCN)C(=O)N[C@@H](CCCCN)C(=O)N[C@H](C(=O)N[C@@H](CC(C)C)C(N)=O)[C@@H](C)CC)[C@@H](C)O` [T9], the “Average (percentage cell inhibition), Dmastoparan MDA-MB231 12.5uM” value in the assay with MDA-MB-231 cells is recorded as 18.2148%. For the same compound, in the assay with PBMC, the “Average (percentage cell inhibition), Mastoparan PBMC” value came out at 2.309%.

For the compound `CC[C@H](C)[C@H](N)C(=O)N[C@@H](CC(N)=O)C(=O)N[C@@H](CC(C)C)C(=O)N[C@@H](CCCCN)C(=O)N[C@@H](C)C(=O)N[C@@H](CC(C)C)C(=O)N[C@@H](C)C(=O)N[C@@H](C)C(=O)N[C@@H](CC(C)C)C(=O)N[C@H](C(=O)N[C@@H](CCCCN)C(=O)N[C@@H](CCCCN)C(=O)N[C@H](C(=O)N[C@@H](CC(C)C)C(N)=O)[C@@H](C)CC)[C@@H](C)O` [T10], the “Average (percentage cell inhibition), Dmastoparan MDA-MB231 12.5uM” value in the assay with MDA-MB-231 cells was 27.2715%. For the same compound, in the assay on PBMC, the “Average (percentage cell inhibition), Mastoparan PBMC” value stood at 8.853%.

In the case of `CC[C@H](C)[C@H](N)C(=O)N[C@@H](CC(N)=O)C(=O)N[C@@H](CC(C)C)C(=O)N[C@@H](CCCCN)C(=O)N[C@@H](C)C(=O)N[C@@H](CC(C)C)C(=O)N[C@@H](C)C(=O)N[C@@H](C)C(=O)N[C@@H](CC(C)C)C(=O)N[C@@H](C)C(=O)N[C@H](C(=O)N[C@@H](CCCCN)C(=O)N[C@H](C(=O)N[C@@H](CC(C)C)C(N)=O)[C@@H](C)CC)[C@@H](C)O` [T11], the “Average (percentage cell inhibition), Dmastoparan MDA-MB231 12.5uM” value in the assay on MDA-MB-231 cells is listed as 32.1267%. Further, the “Average (percentage cell inhibition), Mastoparan PBMC” value in the assay with PBMC was 10.2886%.

On to `CC[C@H](C)[C@H](N)C(=O)N[C@@H](CC(N)=O)C(=O)N[C@@H](CC(C)C)C(=O)N[C@@H](CCCCN)C(=O)N[C@@H](C)C(=O)N[C@@H](CC(C)C)C(=O)N[C@@H](C)C(=O)N[C@@H](C)C(=O)N[C@@H](CC(C)C)C(=O)N[C@@H](C)C(=O)N[C@@H](CCCCN)C(=O)N[C@H](C(=O)N[C@H](C(=O)N[C@@H](CC(C)C)C(N)=O)[C@@H](C)CC)[C@@H](C)O` [T12], for which the “Average (percentage cell inhibition), Dmastoparan MDA-MB231 12.5uM” value in the assay with MDA-MB-231 cells is given as 27.1643%. For the same compound, the “Average (percentage cell inhibition), Mastoparan PBMC” value with PBMC turned out to be 10.5164%.

`CC[C@H](C)[C@H](N)C(=O)N[C@@H](CC(N)=O)C(=O)N[C@@H](CC(C)C)C(=O)N[C@@H](CCCCN)C(=O)N[C@@H](C)C(=O)N[C@@H](CC(C)C)C(=O)N[C@@H](C)C(=O)N[C@@H](C)C(=O)N[C@@H](CC(C)C)C(=O)N[C@@H](C)C(=O)N[C@@H](CCCCN)C(=O)N[C@@H](CCCCN)C(=O)N[C@H](C(=O)N[C@@H](CC(C)C)C(N)=O)[C@@H](C)O` [T13]: the “Average (percentage cell inhibition), Dmastoparan MDA-MB231 12.5uM” value in the assay with MDA-MB-231 cells was 38.2444%. Also, the “Average (percentage cell inhibition), Mastoparan PBMC” value in the assay with PBMC is 3.307%.

Consider `CC[C@H](C)[C@H](N)C(=O)N[C@@H](CC(N)=O)C(=O)N[C@@H](CC(C)C)C(=O)N[C@@H](CCCCN)C(=O)N[C@@H](C)C(=O)N[C@@H](CC(C)C)C(=O)N[C@@H](C)C(=O)N[C@@H](C)C(=O)N[C@@H](CC(C)C)C(=O)N[C@@H](C)C(=O)N[C@@H](CCCCN)C(=O)N[C@@H](CCCCN)C(=O)N[C@H](C(=O)N[C@H](C(N)=O)[C@@H](C)O)[C@@H](C)CC` [T14], for which the “Average (percentage cell inhibition), Dmastoparan MDA-MB231 12.5uM” value with MDA-MB-231 cells came out at 36.2451%. Also, in the assay on PBMC, the “Average (percentage cell inhibition), Mastoparan PBMC” value was found to be 6.663%.

For the compound `CC[C@H](C)[C@H](NC(=O)[C@H](CCCCN)NC(=O)[C@H](CCCCN)NC(=O)[C@H](C)NC(=O)[C@H](CC(C)C)NC(=O)[C@H](C)NC(=O)[C@H](C)NC(=O)[C@H](CC(C)C)NC(=O)[C@H](C)NC(=O)[C@H](CCCCN)NC(=O)[C@H](CC(C)C)NC(=O)[C@H](CC(N)=O)NC(=O)[C@@H](N)C(C)C)C(=O)N[C@@H](CC(C)C)C(N)=O` [V1], the “Average (percentage cell inhibition), Dmastoparan MDA-MB231 12.5uM” value in the assay on MDA-MB-231 cells turned out to be 28.5856%. For the same compound, in the assay on PBMC, the “Average (percentage cell inhibition), Mastoparan PBMC” value was 10.9012%.

`CC[C@H](C)[C@H](N)C(=O)N[C@H](C(=O)N[C@@H](CC(C)C)C(=O)N[C@@H](CCCCN)C(=O)N[C@@H](C)C(=O)N[C@@H](CC(C)C)C(=O)N[C@@H](C)C(=O)N[C@@H](C)C(=O)N[C@@H](CC(C)C)C(=O)N[C@@H](C)C(=O)N[C@@H](CCCCN)C(=O)N[C@@H](CCCCN)C(=O)N[C@H](C(=O)N[C@@H](CC(C)C)C(N)=O)[C@@H](C)CC)C(C)C` [V2]: the “Average (percentage cell inhibition), Dmastoparan MDA-MB231 12.5uM” value in the assay with MDA-MB-231 cells came to 91.4206%. Further, in the assay with PBMC, the “Average (percentage cell inhibition), Mastoparan PBMC” value was found to be 65.6691%.

With `CC[C@H](C)[C@H](N)C(=O)N[C@@H](CC(N)=O)C(=O)N[C@H](C(=O)N[C@@H](CCCCN)C(=O)N[C@@H](C)C(=O)N[C@@H](CC(C)C)C(=O)N[C@@H](C)C(=O)N[C@@H](C)C(=O)N[C@@H](CC(C)C)C(=O)N[C@@H](C)C(=O)N[C@@H](CCCCN)C(=O)N[C@@H](CCCCN)C(=O)N[C@H](C(=O)N[C@@H](CC(C)C)C(N)=O)[C@@H](C)CC)C(C)C` [V3], in the assay with MDA-MB-231 cells, the “Average (percentage cell inhibition), Dmastoparan MDA-MB231 12.5uM” value was 35.8976%. The “Average (percentage cell inhibition), Mastoparan PBMC” value in the assay on PBMC is listed as -4.825%.

On to `CC[C@H](C)[C@H](N)C(=O)N[C@@H](CC(N)=O)C(=O)N[C@@H](CC(C)C)C(=O)N[C@H](C(=O)N[C@@H](C)C(=O)N[C@@H](CC(C)C)C(=O)N[C@@H](C)C(=O)N[C@@H](C)C(=O)N[C@@H](CC(C)C)C(=O)N[C@@H](C)C(=O)N[C@@H](CCCCN)C(=O)N[C@@H](CCCCN)C(=O)N[C@H](C(=O)N[C@@H](CC(C)C)C(N)=O)[C@@H](C)CC)C(C)C` [V4], for which the “Average (percentage cell inhibition), Dmastoparan MDA-MB231 12.5uM” value in the assay with MDA-MB-231 cells amounted to 32.9047%. For the same compound, the “Average (percentage cell inhibition), Mastoparan PBMC” value in the assay with PBMC is 3.317%.

The record behind these values is publication PMC12748989 (Nature Communications, 2025).
